Laboratory results as given in PubChem BioAssay (NCI).
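Test compounds were applied to cells in 96-well plates for 48 hours at 5 doses. Abbreviation: GI50, concentration required for 50% inhibition of growth. TGI is the concentration that stops growth completely.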

Columns and labels:
Assay in all cases: inhibition of tumour cell growth, NCI panel, 48 h
[1] = test system: SN12C renal
[2] = test system: MCF7 breast
[3] = test system: ACHN renal
[4] = test system: UO-31 renal
[5] = test system: RPMI-8226 leukemia
[6] = test system: NCI-H23 lung
[7] = test system: SK-MEL-2 melanoma
[8] = test system: OVCAR-8 ovarian
[9] = test system: MDA-MB-468 breast
[10] = test system: MDA-MB-231 breast
[11] = test system: CCRF-CEM leukemia
[12] = test system: HS 578T breast
[13] = test system: HOP-62 NSCLC
[14] = test system: HCT-15 colon
[15] = test system: NCI/ADR-RES ovarian
[16] = test system: KM12 colon
[17] = test system: LOX IMVI melanoma
[18] = test system: SR leukemia
[19] = test system: 786-0 renal
[20] = test system: SF-268 CNS
[21] = test system: OVCAR-4 ovarian
[22] = test system: SK-OV-3 ovarian
[23] = test system: SF-295 CNS
[24] = test system: SK-MEL-5 melanoma
[25] = test system: T-47D breast
[26] = test system: A498 renal
[27] = test system: DU-145 prostate
[28] = test system: IGROV1 ovarian
[29] = test system: COLO 205 colon
[30] = test system: PC-3 prostate
[31] = test system: K-562 leukemia
[32] = test system: HOP-92 NSCLC
[33] = test system: A549 NSCLC
[34] = test system: OVCAR-3 ovarian
[35] = test system: U251 CNS
[36] = test system: HL-60(TB) leukemia
[37] = test system: SW-620 colon
[38] = test system: RXF 393 renal
[39] = test system: SNB-19 CNS
[40] = test system: M14 melanoma
[41] = test system: CAKI-1 renal
[42] = test system: SNB-75 CNS
[43] = test system: HT29 colon
[44] = test system: UACC-257 melanoma
[45] = test system: NCI-H226 lung
[46] = test system: HCC-2998 colon
[47] = test system: UACC-62 melanoma
[48] = test system: BT-549 breast
[49] = test system: SK-MEL-28 melanoma
[50] = test system: MALME-3M melanoma
[51] = test system: HCT-116 colon
[52] = test system: OVCAR-5 ovarian
[53] = test system: MOLT-4 leukemia
[54] = test system: TK-10 renal
[55] = test system: NCI-H460 lung
[56] = test system: EKVX NSCLC
[57] = test system: MDA-MB-435
[58] = test system: SF-539 CNS
[59] = test system: NCI-H522 lung

CC1(c2ccccc2)NC(=O)N(CC(=O)Nc2ccc(C(=O)/C=C/c3ccc(Cl)cc3)cc2)C1=O (stereo not drawn)
GI50 [1]: 7.96 µM
TGI [1]: 25.4 µM
GI50 [2]: 1960 nM
TGI [2]: 5.28 µM
GI50 [3]: 4.92 µM
TGI [3]: 17.7 µM
GI50 [4]: 4.06 µM
TGI [4]: 18 µM
GI50 [5]: 1930 nM
TGI [5]: 5.07 µM
GI50 [6]: 11.7 µM
TGI [6]: 24.8 µM
GI50 [7]: 11.5 µM
TGI [7]: 28 µM
GI50 [8]: 10.7 µM
TGI [8]: 52.5 µM
GI50 [9]: 2850 nM
TGI [9]: 12.3 µM
GI50 [10]: 5.97 µM
TGI [10]: 21.6 µM
GI50 [11]: 4 µM
TGI [11]: 30.8 µM
GI50 [12]: 12.7 µM
TGI [12]: > 100 µM
GI50 [13]: 12.5 µM
TGI [13]: 29.8 µM
GI50 [14]: 4.55 µM
TGI [14]: 18.4 µM
GI50 [15]: 13.5 µM
TGI [15]: 46.4 µM
GI50 [16]: 2540 nM
TGI [16]: 6.87 µM
GI50 [17]: 2950 nM
TGI [17]: 11.1 µM
GI50 [18]: 2990 nM
TGI [18]: > 100 µM
GI50 [19]: 7.48 µM
TGI [19]: 21 µM
GI50 [20]: 6.51 µM
TGI [20]: 31.5 µM
GI50 [21]: 7.35 µM
TGI [21]: 36.1 µM
GI50 [22]: 16 µM
TGI [22]: 44.6 µM
GI50 [23]: 4.34 µM
TGI [23]: 16.6 µM
GI50 [24]: 4.72 µM
TGI [24]: 16.6 µM
GI50 [25]: 2590 nM
TGI [25]: 14.6 µM
GI50 [26]: 14.4 µM
TGI [26]: 38.2 µM
GI50 [27]: 12.3 µM
TGI [27]: 26.2 µM
GI50 [28]: 9.27 µM
TGI [28]: 22.3 µM
GI50 [29]: 13.2 µM
TGI [29]: 29.7 µM
GI50 [30]: 3.61 µM
TGI [30]: 27.6 µM
GI50 [31]: 3.09 µM
TGI [31]: 13.1 µM
GI50 [32]: 6.25 µM
TGI [32]: 53.7 µM
GI50 [33]: 4.25 µM
TGI [33]: 20 µM
GI50 [34]: 7.1 µM
TGI [34]: 21.9 µM
GI50 [35]: 3.16 µM
TGI [35]: 14.3 µM
GI50 [36]: 4.06 µM
TGI [36]: 30.9 µM
GI50 [37]: 5.93 µM
TGI [37]: 20.7 µM
GI50 [38]: 2970 nM
TGI [38]: 13.6 µM
GI50 [39]: 11.2 µM
TGI [39]: 24.4 µM
GI50 [40]: 3.22 µM
TGI [40]: 12 µM
GI50 [41]: 5.51 µM
TGI [41]: 20.7 µM
GI50 [42]: 1480 nM
TGI [42]: 21.8 µM
GI50 [43]: 3.7 µM
TGI [43]: 15.7 µM
GI50 [44]: 11.3 µM
TGI [44]: 25.7 µM
GI50 [45]: 9.09 µM
TGI [45]: 52.3 µM
GI50 [46]: 1790 nM
TGI [46]: 3.63 µM
GI50 [47]: 4.07 µM
TGI [47]: 17.8 µM
GI50 [48]: 4.78 µM
TGI [48]: 19 µM
GI50 [49]: 10.8 µM
TGI [49]: 23.2 µM
GI50 [50]: 13.1 µM
TGI [50]: 30.8 µM
GI50 [51]: 1370 nM
TGI [51]: 2800 nM
GI50 [52]: 13.3 µM
TGI [52]: 29 µM
GI50 [53]: 3.02 µM
TGI [53]: 23.1 µM
GI50 [54]: 10.8 µM
TGI [54]: 35.4 µM
GI50 [55]: 12 µM
TGI [55]: 27.8 µM
GI50 [56]: 4.64 µM
TGI [56]: 23.5 µM
GI50 [57]: 2150 nM
TGI [57]: 4.83 µM
GI50 [58]: 6.15 µM
TGI [58]: 19.1 µM
GI50 [59]: 6.69 µM
TGI [59]: 30 µM
